The values that follow come from PubChem BioAssay (NCI).

Values joined by “and” are separate entries in the source; they are usually repeats but may differ in a detail not shown here. Identical values can stand only once.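 Dose response: 5 concentrations. Exposure: 48 h. Format: 96-well plates. Endpoint: linear interpolation; highest concentration if not reached. GI50 marks 50% less growth. At the TGI there is no net growth.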

Some test systems named below: OVCAR-8 ovarian; ACHN renal; HL-60(TB) leukemia; HCC-2998 colon; OVCAR-5 ovarian; KM12 colon; NCI-H460 lung; HCT-15 colon; UACC-257 melanoma; SK-MEL-2 melanoma.
Test in all cases: NCI-60 cell line screen, 48 h

Regarding `CCOC(=O)C1=C(C)NC2SC(=O)/C(=C\c3ccccc3Cl)N2C1c1ccccc1` (stereo unspecified), the GI50 is more than 100 µM with OVCAR-8 ovarian; more than 100 µM in the assay on ACHN renal; 59.5 µM in the assay on HL-60(TB) leukemia; more than 100 µM in the assay with HCC-2998 colon; more than 100 µM with OVCAR-5 ovarian; more than 100 µM with KM12 colon. The GI50 in the assay on NCI-H460 lung, with HCT-15 colon, in the assay on UACC-257 melanoma and with SK-MEL-2 melanoma was more than 100 µM in each case. In addition, the TGI in the assay with OVCAR-8 ovarian, with ACHN renal, in the assay on HL-60(TB) leukemia, in the assay with HCC-2998 colon, in the assay with OVCAR-5 ovarian and with KM12 colon was more than 100 µM each time. The TGI in the assay on NCI-H460 lung, in the assay on HCT-15 colon, in the assay on UACC-257 melanoma and with SK-MEL-2 melanoma was more than 100 µM throughout.

In the case of `CCCCN(CCCC)c1ccc(C(=N)c2ccc(N(C)C)cc2)cc1`, the GI50 is 0.591 µM in the assay with OVCAR-8 ovarian; 1.04 µM in the assay with ACHN renal; 0.336 µM in the assay on HL-60(TB) leukemia; 0.429 µM with HCC-2998 colon; 1.31 µM in the assay on OVCAR-5 ovarian; 0.516 µM in the assay on KM12 colon. In addition, the GI50 with NCI-H460 lung was 0.788 µM; in the assay with HCT-15 colon, 0.665 µM; with UACC-257 melanoma it was 0.562 µM; in the assay on SK-MEL-2 melanoma, 0.829 µM. Moreover, the TGI in the assay on OVCAR-8 ovarian stood at 1.78 µM; in the assay on ACHN renal, 2.38 µM; in the assay with HL-60(TB) leukemia, 1.16 µM; in the assay with HCC-2998 colon it was 1.62 µM; with OVCAR-5 ovarian, 2.86 µM; with KM12 colon, 1.75 µM. In addition, the TGI was 2.32 µM in the assay on NCI-H460 lung, 2.2 µM in the assay on HCT-15 colon, 1.35 µM with UACC-257 melanoma and 2.24 µM with SK-MEL-2 melanoma.

For the compound `Cc1ccc(C2CC(c3ccc([N+](=O)[O-])cc3)=Nc3ccccc3S2)cc1` (stereo unspecified), the TGI in the assay with OVCAR-8 ovarian is 72.3 µM; in the assay on ACHN renal, more than 100 µM; in the assay with HL-60(TB) leukemia, 43.4 µM; in the assay on HCC-2998 colon, 40.3 µM; in the assay with OVCAR-5 ovarian, more than 100 µM; in the assay with KM12 colon it was 75.2 µM. The TGI with NCI-H460 lung was more than 100 µM; in the assay with HCT-15 colon, 46.2 µM; in the assay on UACC-257 melanoma, more than 100 µM; in the assay on SK-MEL-2 melanoma, 95 µM.

`COC1C(O)C(C)OC(OC2C(Oc3cccc4c(O)c5c(=O)oc6ccc(C)c7c(=O)oc(c34)c5c67)OC(C)C3O[C@H](c4ccccc4)OC32)C1O` (stereo partly specified): the TGI with OVCAR-8 ovarian amounted to 8.23 µM; in the assay on HL-60(TB) leukemia it was 4.53 µM; in the assay on HCC-2998 colon it was 3.41 µM; in the assay with OVCAR-5 ovarian it was 12.7 µM; in the assay on KM12 colon it was 8.49 µM; in the assay on NCI-H460 lung, 1.43 µM. The TGI in the assay on HCT-15 colon was 6.65 µM; in the assay with UACC-257 melanoma, 3.86 µM; with SK-MEL-2 melanoma, 6.07 µM. The GI50 in the assay with ACHN renal is 0.0276 µM; in the assay on HCC-2998 colon, 0.276 µM; in the assay with KM12 colon, 0.331 µM and 0.312 µM; in the assay on NCI-H460 lung it was 0.0241 µM; in the assay on HCT-15 colon, 0.516 µM; in the assay with UACC-257 melanoma, 0.798 µM and 0.372 µM. Moreover, the GI50 in the assay on SK-MEL-2 melanoma is 0.937 µM.

Turning to `CCC1=C(C)/C(=C/c2[nH]c(C(Br)Br)c(CC)c2C)N=C1C(Br)Br`, the TGI in the assay with OVCAR-8 ovarian was more than 100 µM; in the assay on ACHN renal, more than 100 µM; in the assay on HL-60(TB) leukemia it was 52.2 µM; with HCC-2998 colon it was 52.9 µM; in the assay with OVCAR-5 ovarian, more than 100 µM; in the assay with KM12 colon, 80.4 µM. Further, the TGI is more than 100 µM in the assay on NCI-H460 lung, more than 100 µM in the assay on HCT-15 colon, 57.6 µM in the assay on UACC-257 melanoma and more than 100 µM in the assay on SK-MEL-2 melanoma.

Turning to `C=C1C(=O)O[C@H]2[C@H]1CC/C(Cn1cc(CNCCc3c[nH]c4ccc(Cl)cc34)nn1)=C\CC[C@@]1(C)O[C@@H]21`, the GI50 with OVCAR-8 ovarian is 11.8 µM; with ACHN renal, 10.2 µM; with HL-60(TB) leukemia it was 1.12 µM; with HCC-2998 colon, 20.3 µM; in the assay on OVCAR-5 ovarian, 11.5 µM; in the assay on KM12 colon, 17.1 µM. In addition, the GI50 with NCI-H460 lung was 49.1 µM; in the assay on HCT-15 colon, 13.4 µM; in the assay with UACC-257 melanoma it was 10.7 µM; in the assay with SK-MEL-2 melanoma it was 10.3 µM. The TGI in the assay with OVCAR-8 ovarian was 29.1 µM; in the assay on ACHN renal, 22.2 µM; in the assay on HL-60(TB) leukemia, 3.46 µM; with HCC-2998 colon, 44.6 µM; with OVCAR-5 ovarian, 26.7 µM; in the assay on KM12 colon, 44.1 µM. Moreover, the TGI is more than 100 µM in the assay with NCI-H460 lung, 29.9 µM in the assay on HCT-15 colon, 27 µM in the assay on UACC-257 melanoma and 26.1 µM in the assay with SK-MEL-2 melanoma.

As for `COc1c(C2=NC(C(C)C)CO2)ccc2ccccc12` (stereo unspecified), the TGI was more than 100 µM with OVCAR-8 ovarian; more than 100 µM in the assay on ACHN renal; 42.9 µM in the assay with HL-60(TB) leukemia; more than 100 µM with HCC-2998 colon; more than 100 µM with OVCAR-5 ovarian; more than 100 µM in the assay on KM12 colon. Also, the TGI in the assay on NCI-H460 lung, in the assay on HCT-15 colon, in the assay with UACC-257 melanoma and with SK-MEL-2 melanoma was more than 100 µM each time.

With `O=C1c2ccccc2C(=O)C2C1C1C(=O)c3ccccc3C(=O)C21` (stereo unspecified), the TGI in the assay with OVCAR-8 ovarian, in the assay on ACHN renal, with HL-60(TB) leukemia, with HCC-2998 colon, in the assay on OVCAR-5 ovarian and with KM12 colon was more than 100 µM each time. In addition, the TGI in the assay with NCI-H460 lung, with HCT-15 colon, in the assay with UACC-257 melanoma and in the assay on SK-MEL-2 melanoma was more than 100 µM throughout.

As to `CC1=CC[C@@H]2C(C)(C)C(=O)CC[C@@]2(C)[C@@H]1COc1ccc2ccc(=O)oc2c1`, the GI50 was 5.69 µM in the assay on OVCAR-8 ovarian; 15.3 µM with ACHN renal; 7.3 µM in the assay with HL-60(TB) leukemia; 30.3 µM with HCC-2998 colon; 25.9 µM in the assay with OVCAR-5 ovarian; 9.15 µM in the assay on KM12 colon. The GI50 with NCI-H460 lung is 21.8 µM; in the assay on HCT-15 colon, 13.4 µM; with UACC-257 melanoma, 12.3 µM; in the assay with SK-MEL-2 melanoma, 11.5 µM. In addition, the TGI is 39 µM in the assay on OVCAR-8 ovarian; 79.9 µM with ACHN renal; 29.2 µM with HL-60(TB) leukemia; more than 100 µM in the assay with HCC-2998 colon; more than 100 µM in the assay on OVCAR-5 ovarian; 23.7 µM in the assay on KM12 colon. In addition, the TGI with NCI-H460 lung was 79.7 µM; in the assay on HCT-15 colon, 56.4 µM; in the assay on UACC-257 melanoma, 31 µM; in the assay on SK-MEL-2 melanoma it was 42.3 µM.
